From patent US3940413A, “1-Ethyl-imidazoles” (Bayer Aktiengesellschaft, priority 1972, dated 1976) come the findings set out here.

Holding throughout (test): antimycotic action spectrum in vitro, series dilution test
What all share (assay type): cell-based

One assay has as its system Aspergillus niger. Particulars: in nutrient medium, 28°C, 24 to 96 hours; for MIC: Aspergillus niger, read-out: Minimum inhibitory concentration, Aspergillus niger. How it is done:
(§1) Determination of the anti-mycotic action spectrum in vitro by the series dilution test.
(§2) The nutrient substrates used were, for dermatophytes and moulds, Sabourauds' test medium, and, for blastomyces and biphase fungi, meat broth-glucose bouillon.
(§3) The incubation temperature was 28°C and the incubation time was 24 to 96 hours.

Another assay deals with Candida albicans. The settings on record: in nutrient medium, 28°C, 24 to 96 hours; for MIC: Candida albicans, read-out: Minimum inhibitory concentration, Candida albicans. The procedure:
as §1, §2, §3

The subject of a further assay is Penicillium commune. Particulars: in nutrient medium, 28°C, 24 to 96 hours; for MIC: Penicillium commune, read-out: Minimum inhibitory concentration, Penicillium commune. The procedure:
as §1, §2, §3

Assay [1] deals with Trichophyton mentagrophytes. The settings on record: in nutrient medium, Sabourauds' test medium, 28°C, 24 to 96 hours; for MIC: Trichophyton mentagrophytes, read-out: Minimum inhibitory concentration, Trichophyton mentagrophytes. How it is done:
as §1, §2, §3

Structures are written as SMILES. Converted amounts (≈) assume the structure as drawn.

For the compound `CC(C)(C)C(=O)C(Cn1ccnc1)Oc1ccc(Cl)cc1` (centres unmarked) [Example 1, 2-(4-chlorophenoxy)-1-imidazolyl-(1)-4,4-dimethyl-pentan-3-one], the MIC with Aspergillus niger is 8 µg/mL (≈ 26.1 µM); in the assay on Candida albicans it was 4 µg/mL (≈ 13 µM); with Penicillium commune, 32 µg/mL (≈ 104 µM); in assay [1], 4 µg/mL (≈ 13 µM).
As for `CC(C)(C)C(=O)C(Cn1ccnc1)Oc1ccc(Cl)cc1` (centres unmarked) [Example 4, 2-(4-chlorophenoxy)-1-imidazolyl-(1)-4,4-dimethyl-pentan-3-one], the “Minimum inhibitory concentration, Aspergillus niger” value in the assay on Aspergillus niger came to 4 µg/mL (≈ 13 µM). Besides, the “Minimum inhibitory concentration, Candida albicans” value in the assay with Candida albicans stood at 4 µg/mL (≈ 13 µM). Besides, the “Minimum inhibitory concentration, Penicillium commune” value with Penicillium commune was determined as 32 µg/mL (≈ 104 µM). In addition, in assay [1], the “Minimum inhibitory concentration, Trichophyton mentagrophytes” value amounted to 4 µg/mL (≈ 13 µM).
With `CC(C)(C)C(=O)C(Cn1ccnc1)Oc1ccc(Cl)cc1Cl` (centres unmarked) [Example 5, 2-(2,4-dichlorophenoxy)-1-imidazolyl-(1)-4,4-dimethyl-pentan-3-one], the MIC is 4 µg/mL (≈ 11.7 µM) in the assay on Aspergillus niger, 4 µg/mL (≈ 11.7 µM) in the assay with Candida albicans, 16 µg/mL (≈ 46.9 µM) with Penicillium commune and less than 1 µg/mL in assay [1].
Turning to `CC(C)(C)C(=O)C(Cn1ccnc1)Oc1ccc(Br)cc1` (centres unmarked) [Example 6, 2-(4-bromophenoxy)-1-imidazolyl-(1)-4,4-dimethyl-pentan-3-one], the MIC in the assay on Aspergillus niger was 4 µg/mL (≈ 11.4 µM); in the assay with Candida albicans, 4 µg/mL (≈ 11.4 µM); in the assay with Penicillium commune, 16 µg/mL (≈ 45.6 µM); in assay [1], 8 µg/mL (≈ 22.8 µM).
On to `CC(C)(C)C(=O)C(Cn1ccnc1)Oc1ccc(F)cc1` (centres unmarked) [Example 7, 2-(4-fluorophenoxy)-1-imidazolyl-(1)-4,4-dimethyl-pentan-3-one], for which the MIC in the assay with Aspergillus niger is 4 µg/mL (≈ 13.8 µM); in the assay on Candida albicans, 4 µg/mL (≈ 13.8 µM); in the assay on Penicillium commune, 32 µg/mL (≈ 110 µM); in assay [1] it was 8 µg/mL (≈ 27.6 µM).
In the case of `CC(C)(C)C(=O)C(Cn1ccnc1)Oc1ccccc1Cl` (centres unmarked) [Example 8, 2-(2-chlorophenoxy)-1-imidazolyl-(1)-4,4-dimethyl-pentan-3-one], the MIC with Aspergillus niger is 4 µg/mL (≈ 13 µM); in the assay with Candida albicans, 4 µg/mL (≈ 13 µM); in the assay with Penicillium commune, 16 µg/mL (≈ 52.2 µM); in assay [1] it was 8 µg/mL (≈ 26.1 µM).
On to `CC(C)(C)C(=O)C(Cn1ccnc1)Oc1cccc(Cl)c1` (centres unmarked) [Example 9, 2-(3-chlorophenoxy)-1-imidazolyl-(1)-4,4-dimethyl-pentan-3-one], for which the MIC in the assay with Aspergillus niger amounted to 4 µg/mL (≈ 13 µM); in the assay with Candida albicans, 4 µg/mL (≈ 13 µM); in the assay on Penicillium commune, 16 µg/mL (≈ 52.2 µM); in assay [1], 4 µg/mL (≈ 13 µM).
On to `CC(C)(C)C(=O)C(Cn1ccnc1)Oc1cc(Cl)c(Cl)cc1Cl` (centres unmarked) [Example 10, 2-(2,4,5-trichlorophenoxy)-1-imidazolyl-(1)-4,4-dimethyl-pentan-3-one], for which the MIC came to 4 µg/mL (≈ 10.6 µM) in the assay with Aspergillus niger, 4 µg/mL (≈ 10.6 µM) in the assay on Candida albicans, 16 µg/mL (≈ 42.6 µM) with Penicillium commune and 4 µg/mL (≈ 10.6 µM) in assay [1].
Consider `Cc1cc(Cl)ccc1OC(Cn1ccnc1)C(=O)C(C)(C)C` (centres unmarked) [Example 12], for which the MIC in the assay on Aspergillus niger is 8 µg/mL (≈ 24.9 µM); in the assay with Candida albicans it was 4 µg/mL (≈ 12.5 µM); in the assay with Penicillium commune, 8 µg/mL (≈ 24.9 µM); in assay [1], less than 1 µg/mL.
Regarding `CC(C)(C)C(=O)C(Cn1ccnc1)Oc1ccccc1-c1ccccc1` (centres unmarked) [Example 13, 2-(2-phenylphenoxy)-1-imidazolyl-(1)-4,4-dimethyl-pentan-3-one], the MIC with Aspergillus niger is 8 µg/mL (≈ 23 µM); with Candida albicans, 4 µg/mL (≈ 11.5 µM); in the assay on Penicillium commune, 16 µg/mL (≈ 45.9 µM); in assay [1], 8 µg/mL (≈ 23 µM).
For `CC(C)(C)C(=O)C(Cn1ccnc1)Oc1ccc(-c2ccccc2)cc1` (centres unmarked) [Example 14, 2-(4-phenylphenoxy)-1-imidazolyl-(1)-4,4-dimethyl-pentan-3-one], the MIC in the assay on Aspergillus niger was 8 µg/mL (≈ 23 µM); in the assay with Candida albicans, 4 µg/mL (≈ 11.5 µM); in the assay with Penicillium commune, 8 µg/mL (≈ 23 µM); in assay [1], less than 1 µg/mL.
